Results on 15 molecules are retold here after patent US9388179B2, “N-substituted indazole sulfonamide compounds with selective activity in voltage-gated sodium channels” (Merck Sharp & Dohme Corp., priority 2012, dated 2016).

What all share (assay type): cell-based
One experiment has as its target T1, Nav 1.7 (Homo sapiens, UniProt Q15858).
T1 construct: expressed in transfected cells; host or cells: HEK 293
Briefly: Comparative examples, Nav 1.7 activity (Patch Express or Ion Works, technique not given). Particulars: Table IX, read-out: Activity: Nav 1.7 potency. How it is done:
(§1) Potency of the example compounds was assayed using Patch Express or Ion Works techniques, as reported herein. The results are reported below following each example number as follows: Ex-(no.) Nav 1.7 potency (nM) [ratio 1.5:1.7=Nav 1.5 potency (nM)/Nav1.7 potency (nM)].

For the next experiment, the target named is T2, Nav 1.5 (Homo sapiens, UniProt Q14524).
T2 construct: expressed in transfected cells; host or cells: HEK 293
Briefly: Comparative examples, Nav 1.5 activity (Patch Express or Ion Works, technique not given). Particulars: Table IX. The protocol:
as §1

The target of experiment [1] is T3, human Nav1.5 channels stably expressed in HEK 293 cells (Homo sapiens, UniProt Q14524).
T3 construct: expressed in transfected cells; host or cells: HEK 293
Briefly: IonWorks Quattro automated patch-clamp, inactivated state block. Particulars: IonWorks technique. How it is done: (§2) For all electrophysiology experiments, offline analysis was used to correct for current rundown and to determine percent inhibition as a function of drug concentration. IC50 values were determined by fitting to the Hill equation.
(§3) Cell Based Assays for Nav 1.7 and Nav 1.5 Activity
(§4) Compounds were tested on human Nav1.7 and Nav1.5 channels stably expressed in HEK 293 cells. […] Cells were sealed on a planar substrate using the Population Patch […] (PPC) technology. Electrical access was obtained using both nystatin and amphotericin. A double-pulse protocol was used for the determination of IC50 values for inactivated state block. Nav1.7 and Nav1.5 expressing cells were voltage clamped at −100 mV and −110 mV, respectively. A depolarizing prepulse to −10 mV (Nav1.7) or −30 mV (Nav1.5) for 1000 ms followed by a 10 ms repolarization to −100 mV (Nav1.7) or −110 mV (Nav1.5) was given to generate fractional channel inactivation of 50%, followed by a 10 ms test pulse to −10 mV (Nav1.7) or −30 mV (Nav1.5) to measure peak current in control conditions and after compound addition. The following recording solutions were used (mM). External: 150 NaCl, 2 CaCl2, 5 KCl, 1 MgCl2, 10 HEPES, 12 Dextrose; internal: 120 CsF, 30 CsCl, 10 EGTA, 5 HEPES, 5 NaF, 2 MgCl2.
In general terms: In patch-clamp work, channel activity is measured electrically.

Experiment [2] addresses T4, human Nav1.7 channels stably expressed in HEK 293 cells (Homo sapiens, UniProt Q15858).
T4 construct: expressed in transfected cells; host or cells: HEK 293
The description is as above. The conditions noted are these: IonWorks technique; read-out: Nav 1.7 potency. The protocol: as §2, §3, §4

Experiment [3] concerns the target T3, human Nav1.5 channels stably expressed in HEK 293 cells. Briefly: PatchXpress 7000 automated patch-clamp, inactivated state block. Particulars: PatchXpress technique. The protocol:
as §2
(§5) Sodium Current Measurements on the PatchXpress 7000®:
(§6) To measure inactivated state block of sodium channels, test compounds were characterized in an automated PatchXpress® assay (Molecular Devices) using a double-pulse protocol on human Nav1.7 and Nav1.5 channels stably expressed in HEK 293 cells. Cells were held at a potential 20 mV negative to V0.5 inact. An 8000 ms pre-pulse 7 mV positive to V0.5 inact was given followed by a hyperpolarizing 2 ms pulse to −120 mV and a 20 ms test pulse to −20 mV. Protocol was applied to cells in the absence, presence of compound and after washout. The temperature of PatchXpress instruments was maintained at 22° C. The following recording solutions were used. Internal solution (mM): 30 CsCl, 5 HEPES, 10 EGTA, 120 CsF, 5 NaF, 2 MgCl2. External solution (mM): 120 NMDG, 40 NaCl, 1 KCl, 0.5 MgCl2, 5 HEPES, 2.7 CaCl2.

Experiment [4] addresses T4, human Nav1.7 channels stably expressed in HEK 293 cells. The experiment is described as above. The conditions noted are these: PatchXpress technique; read-out: Nav 1.7 potency. The protocol:
as §2, §5, §6

Molecules are shown by their SMILES. Bounds are passed on as bounds.

T2 sequence (Q14524 whole entry): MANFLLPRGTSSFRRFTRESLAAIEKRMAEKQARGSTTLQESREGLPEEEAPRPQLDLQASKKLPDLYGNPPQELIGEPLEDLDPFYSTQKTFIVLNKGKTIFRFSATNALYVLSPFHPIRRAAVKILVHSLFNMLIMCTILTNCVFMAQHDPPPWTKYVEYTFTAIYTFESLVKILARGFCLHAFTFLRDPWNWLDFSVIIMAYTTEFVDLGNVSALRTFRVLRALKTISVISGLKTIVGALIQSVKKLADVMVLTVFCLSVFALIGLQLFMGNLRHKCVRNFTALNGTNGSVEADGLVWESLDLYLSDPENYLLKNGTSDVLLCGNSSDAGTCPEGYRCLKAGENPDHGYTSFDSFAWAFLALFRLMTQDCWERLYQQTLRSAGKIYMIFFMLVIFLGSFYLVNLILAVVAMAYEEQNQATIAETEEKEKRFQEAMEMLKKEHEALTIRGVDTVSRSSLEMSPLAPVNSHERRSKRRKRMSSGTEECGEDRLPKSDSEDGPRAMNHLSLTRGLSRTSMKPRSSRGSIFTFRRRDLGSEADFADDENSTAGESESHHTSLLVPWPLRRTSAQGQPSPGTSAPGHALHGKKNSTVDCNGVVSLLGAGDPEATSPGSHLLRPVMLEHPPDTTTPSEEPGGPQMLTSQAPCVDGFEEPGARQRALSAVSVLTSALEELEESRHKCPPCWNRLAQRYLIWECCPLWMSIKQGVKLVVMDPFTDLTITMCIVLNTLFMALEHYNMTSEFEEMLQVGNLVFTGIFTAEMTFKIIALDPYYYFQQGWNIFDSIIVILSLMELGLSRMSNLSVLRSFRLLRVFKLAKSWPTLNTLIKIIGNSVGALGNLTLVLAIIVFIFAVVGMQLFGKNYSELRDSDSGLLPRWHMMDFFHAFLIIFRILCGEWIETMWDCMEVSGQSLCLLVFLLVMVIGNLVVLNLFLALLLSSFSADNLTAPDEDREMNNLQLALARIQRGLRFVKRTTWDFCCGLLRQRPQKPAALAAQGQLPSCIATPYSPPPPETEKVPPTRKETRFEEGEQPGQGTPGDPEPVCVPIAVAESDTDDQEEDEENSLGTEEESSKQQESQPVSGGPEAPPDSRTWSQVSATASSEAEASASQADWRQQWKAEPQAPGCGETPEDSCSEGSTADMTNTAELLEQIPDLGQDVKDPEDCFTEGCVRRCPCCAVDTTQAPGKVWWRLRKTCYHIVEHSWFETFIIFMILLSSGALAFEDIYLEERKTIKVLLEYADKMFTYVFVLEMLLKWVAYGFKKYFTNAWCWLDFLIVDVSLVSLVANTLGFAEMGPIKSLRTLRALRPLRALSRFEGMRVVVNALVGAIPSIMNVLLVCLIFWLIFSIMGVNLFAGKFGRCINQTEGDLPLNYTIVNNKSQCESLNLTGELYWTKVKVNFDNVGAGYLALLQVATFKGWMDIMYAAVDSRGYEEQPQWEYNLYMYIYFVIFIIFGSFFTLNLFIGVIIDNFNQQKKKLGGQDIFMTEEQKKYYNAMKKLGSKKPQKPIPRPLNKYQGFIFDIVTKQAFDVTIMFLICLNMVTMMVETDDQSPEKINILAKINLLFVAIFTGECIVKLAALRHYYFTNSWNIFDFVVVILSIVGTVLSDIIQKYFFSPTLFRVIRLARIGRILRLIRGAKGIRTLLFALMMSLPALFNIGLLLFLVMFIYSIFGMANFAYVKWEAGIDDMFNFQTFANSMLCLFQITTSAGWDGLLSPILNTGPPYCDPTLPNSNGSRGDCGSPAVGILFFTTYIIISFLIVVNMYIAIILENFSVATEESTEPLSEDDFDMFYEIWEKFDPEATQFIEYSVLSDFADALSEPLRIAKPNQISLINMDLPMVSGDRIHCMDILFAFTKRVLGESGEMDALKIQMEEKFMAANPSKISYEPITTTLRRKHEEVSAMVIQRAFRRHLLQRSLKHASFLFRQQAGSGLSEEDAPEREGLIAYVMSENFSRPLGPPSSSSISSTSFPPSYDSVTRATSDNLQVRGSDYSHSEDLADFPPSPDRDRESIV
T3 sequence (Q14524 whole entry): as above

On to `Nc1cc(-c2cc(Cl)ccc2Cn2ncc3cc(S(=O)(=O)Nc4ncns4)ccc32)ccn1` [CE-01, 1-(2-(2-aminopyridin-4-yl)-4-chlorobenzyl)-N-(1,2,4-thiadiazol-5-yl)-1H-indazole-5-sulfonamide], for which the IC50 on Nav 1.7 amounted to 27 µM. For the same molecule, the “Activity: Ratio 1.5:1.7” value at Nav 1.5 came to 1.
Turning to `O=S(=O)(Nc1nccs1)c1ccc2c(cnn2Cc2ccc(OC(C(F)(F)F)(C(F)(F)F)C(F)(F)F)cc2)c1` [CE-02, 1-(4-(1,1,1,3,3,3-hexafluoro-2-(trifluoro-methyl)propan-2-yloxy)benzyl)-N-(thiazol-2-yl)-1H-indazole-5-sulfonamide], on Nav 1.7, the IC50 is 33 µM. Also, the “Activity: Ratio 1.5:1.7” value at Nav 1.5 is recorded as 1.
As to `O=S(=O)(Nc1nccs1)c1ccc2nn(Cc3ccc(OC(C(F)(F)F)(C(F)(F)F)C(F)(F)F)cc3)cc2c1` [CE-03, 2-(4-(1,1,1,3,3,3-hexafluoro-2-(trifluoro-methyl)propan-2-yloxy)benzyl)-N-(thiazol-2-yl)-2H-indazole-5-sulfonamide], on Nav 1.7, the IC50 is 33 µM. Moreover, the “Activity: Ratio 1.5:1.7” value on Nav 1.5 is reported as 1.
Take `O=S(=O)(Nc1ncns1)c1cc2cnn(Cc3ccccc3-c3cccc4c3CCNC4)c2cc1F` [Ex-10, 6-fluoro-1-[2-(1,2,3,4-tetrahydroisoquinolin-5-yl)benzyl]-N-1,2,4-thiadiazol-5-yl-1H-indazole-5-sulfonamide]: the “Ratio 1.5:1.7 = Nav 1.5 potency (nM)/Nav1.7 potency (nM)” value (“Ratio 1.5:1.7 = Nav 1.5 potency” for short) in experiment [1] was determined as 30; in experiment [3], 38. In addition, the figures for the IC50 in experiment [2] and in experiment [4] were 1.08 µM and 0.782 µM, respectively.
On to `C[C@@H](c1ccccc1)n1ncc2cc(S(=O)(=O)Nc3ncns3)c(F)cc21` [Ex-11, 6-fluoro-1-[(1S)-1-phenylethyl]-N-1,2,4-thiadiazol-5-yl-1H-indazole-5-sulfonamide], for which the “Ratio 1.5:1.7 = Nav 1.5 potency” value was 11 in experiment [1] and 32 in experiment [3]. Further, the results for the IC50 in experiment [2] and in experiment [4] were 1.48 µM and 0.343 µM, respectively.
For `O=S(=O)(Nc1ncns1)c1cc2cnn(Cc3ccccc3)c2cc1F` [Ex-12, 1-benzyl-6-fluoro-N-(1,2,4-thiadiazol-5-yl)-1H-indazole-5-sulfonamide], the “Ratio 1.5:1.7 = Nav 1.5 potency” value in experiment [1] turned out to be 15; in experiment [3], 174. Besides, the figures for the IC50 in experiment [2] and in experiment [4] were 0.936 µM and 0.495 µM, respectively.
Take `NC/C=C/c1ccccc1Cn1ncc2cc(S(=O)(=O)Nc3ncns3)ccc21` [Ex-15, 1-{2-[(1E)-3-aminoprop-1-en-1-yl]benzyl}-N-1,2,4-thiadiazol-5-yl-1H-indazole-5-sulfonamide]: the “Ratio 1.5:1.7 = Nav 1.5 potency” value in experiment [1] amounted to 207; in experiment [3] it was 237. Moreover, the IC50 in experiment [2] came out at 0.159 µM; in experiment [4] it was 0.127 µM.
For `NC/C=C/c1cc(Cl)ccc1Cn1ncc2cc(S(=O)(=O)Nc3ncns3)ccc21` [Ex-16, 1-{2-[(1E)-3-aminoprop-1-en-1-yl]-4-chlorobenzyl}-N-1,2,4-thiadiazol-5-yl-1H-indazole-5-sulfonamide] the same measures were 81, 32, 0.413 µM and 0.939 µM.
For `O=S(=O)(Nc1ncns1)c1ccc2c(cnn2Cc2ccc(Cl)cc2C2=CCNCCC2)c1` [Ex-17, 1-[4-chloro-2-(2,5,6,7-tetrahydro-1H-azepin-4-yl)benzyl]-N-1,2,4-thiadiazol-5-yl-1H-indazole-5-sulfonamide] the same measures were 59, 7, 0.559 µM and 4.47 µM.
For `O=S(=O)(Nc1ncns1)c1ccc2c(cnn2Cc2ccc(Cl)cc2C2=CCNCC2)c1` [Ex-18, 1-[4-chloro-2-(1,2,3,6-tetrahydropyridin-4-yl)benzyl]-N-1,2,4-thiadiazol-5-yl-1H-indazole-5-sulfonamide] the same measures were 42, 6, 0.781 µM and 5.21 µM.
For the molecule `O=S(=O)(Nc1ncns1)c1ccc2c(cnn2Cc2ccccc2)c1` [Ex-19, 1-benzyl-N-1,2,4-thiadiazol-5-yl-1H-indazole-5-sulfonamide], the “Ratio 1.5:1.7 = Nav 1.5 potency” value in experiment [1] turned out to be 39; in experiment [3] it was 6. The IC50 in experiment [2] was 0.856 µM; in experiment [4], 3.03 µM.
For `O=S(=O)(Nc1ncns1)c1ccc2c(cnn2Cc2ccccc2-c2cccc3c2CCNC3)c1` [Ex-22, 1-[2-(1,2,3,4-tetrahydroisoquinolin-5-yl)benzyl]-N-1,2,4-thiadiazol-5-yl-1H-indazole-5-sulfonamide] the same measures were 23, above 10, 1.46 µM and 2.9 µM.
For `O=S(=O)(Nc1ncns1)c1ccc2c(cnn2Cc2ccccc2C2=CCNCCC2)c1` [Ex-23, 1-[2-(2,5,6,7-tetrahydro-1H-azepin-4-yl)benzyl]-N-1,2,4-thiadiazol-5-yl-1H-indazole-5-sulfonamide] the same measures were 19, above 7, 1.7 µM and 4.47 µM.
With `O=S(=O)(Nc1ncns1)c1ccc2c(cnn2Cc2ccc(Cl)cc2-c2cccc3c2CCNC3)c1` [Ex-25, 1-[4-chloro-2-(1,2,3,4-tetrahydroisoquinolin-5-yl)benzyl]-N-1,2,4-thiadiazol-5-yl-1H-indazole-5-sulfonamide], the “Ratio 1.5:1.7 = Nav 1.5 potency” value in experiment [1] is 23; in experiment [3], 10. The IC50 in experiment [2] was found to be 1.48 µM; in experiment [4], 2.9 µM.
Regarding `C[C@@H](c1cccc2c1CNCC2)n1ncc2cc(S(=O)(=O)Nc3ncns3)c(F)cc21` [Ex-64, (S)-6-fluoro-1-(1-(1,2,3,4-tetrahydroisoquinolin-8-yl)ethyl)-N-(1,2,4-thiadiazol-5-yl)-1H-indazole-5-sulfonamide], the “Ratio 1.5:1.7 = Nav 1.5 potency” value in experiment [1] stood at 42; in experiment [3] it was 36. For the same molecule, the IC50 in experiment [2] was 0.777 µM; in experiment [4], 0.833 µM.
